Columns and labels:
Lin28A ZKD = target: T1, Lin28A ZKD (Homo sapiens, UniProt Q9H9Z2); experiment: Fluorescence polarization (FP) assay, Lin28A ZKD with FAM-labeled Let-7 probe; assay type: binding; details: for IC50: 10 uM Lin28A ZKD, 1 nM FAM-labeled Let-7 probe, 1 nM–200 uM compound; for suppression of FP signals: Lin28A ZKD
T1 construct: Lin28A ZKD (aa121-187); His-tag; made in house; host or cells: Escherichia coli BL21
T1 sequence (Q9H9Z2 121-187): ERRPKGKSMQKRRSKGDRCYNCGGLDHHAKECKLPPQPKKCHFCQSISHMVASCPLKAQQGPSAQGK
From the text: (§1) ZINC compounds were purchased from Enamine (Kyiv, Ukraine), Life Chemicals Ltd. (Kyiv, Ukraine), or Princeton Biomolecular Research (Princeton, NJ, USA) with >90% purity. Upon receiving the compounds, the molecular masses were validated by LC/MS/MS. His-tagged human Lin28B ZKD (aa110-174), Lin28B CSD+ZKD (aa7-204), and Lin28A ZKD (aa121-187) were expressed in Escherichia coli BL21 cells and purified by immobilized metal ion affinity chromatography (IMAC) with nickel nitrilotriacetic acid (NiNTA) resin and size exclusion chromatography (s75 10/300 GL) as we have previously reported.
(§2) The fluorescein amidites (FAM)-tagged Let-7 probe with the sequence of […] was purchased from Integrated DNA Technologies (IDT). The probe at the concentrations ranging from 1 nM to 50 uM was incubated with Lin28B (ZKD) or Lin28 (CSD+ZKD) to a final volume of 30 uL at room temperature for 20 min. To read the fluorescence, a TECAN 500 machine was used. Fluorescence polarization was calculated using the following equation: P=Fparrallel−Fperpendicular/Fparrallel+Fperpendicular where P is the fluorescence polarization reading, F parallel is the fluorescence intensity acquired from the parallel excitation plane, and F perpendicular is the fluorescence intensity acquired from the perpendicular direction of the excitation plane. The total fluorescence intensity is estimated using the following equation: F=Fparallel+2Fperpendicular
(§3) All the raw FP signal data from the TECAN 500 FP results were analyzed using Prism 8.0 (GraphPad, San Diego, CA, USA); normalized curves were plotted and IC50 values were estimated. All FP data were repeated three to five times.
(§4) Figure 5 Lin28 inhibitors block the Lin28A isoform. (A) EMSA used 10 nM of IR800DyeCWN-labeled Let-7 probe (lane 1), 0.5 uM Lin28A ZKD protein with 10 nM of labeled Let-7 probe (lane 2), or Lin28A ZKD, labeled Let-7 probe and 100× non-labeled competitor probe (lane 3). EMSA used Lin28A ZKD, labeled Let-7 probe, and 100–1200 uM of indicated compounds (lanes 4–10). (B) FP assays were performed by using 10 uM of Lin28A ZKD, 1 nM of FAM-labeled Let-7 probe, and 1 nM–200 uM of compounds. (C) Lin28A-positive IGROV1 cells were treated with 20 uM of the indicated compound for 48 h. Real-time qPCR measured RNA levels of Let-7d, SOX2, and HMGA2. Three biological replicates were performed and all results are presented as mean +/− SD. p-value ≤ 0.05—(*); ≤0.01—(**); ≤0.001—(***).

Lin28B ZKD = target: T2, Lin28B ZKD (Homo sapiens, UniProt Q6ZN17); experiment: Fluorescence polarization (FP) assay, Lin28B ZKD with FAM-labeled Let-7 probe; assay type: binding; details: for IC50: 10 uM Lin28B ZKD, 1 nM FAM-labeled Let-7 probe, 1 nM–1000 uM compound
T2 construct: His-tagged human Lin28B ZKD (aa110-174); His-tag; made in house; host or cells: Escherichia coli BL21
T2 sequence (Q6ZN17 110-174): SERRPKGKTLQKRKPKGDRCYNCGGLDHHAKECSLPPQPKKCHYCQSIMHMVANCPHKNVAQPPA
From the text: as §1, §2, §3
To test the predicted compounds by CADD, we established an FP assay using both Lin28B ZKD and Lin28B CSD+ZKD to be incubated with a FAM-labeled Let-7 oligo containing the GGAG motif. To validate that the signals obtained from FP assays reflect the interaction between Lin28 and Let-7, we have tested: (1) 1 nM–50 uM FAM-labeled Let-7 probes with 10 uM Lin28 proteins and observed a dose-dependent reduction of FP signal; (2) 1 nM FAM labeled Let-7 probes with 1 nM–50 uM Lin28 proteins and observed a dose-dependent increase of FP signal; (3) 1 nM–50 uM doses of non-labeled Let-7 oligo to be incubated with 1 nM FAM probe and 10 uM Lin28 proteins, and observed a dose-dependent reduction of FP signal (Figure 2A,B).
Figure 2 Establishment of the Fluorescence Polarization Assay and Initial compound screening. (A) Graphical representation of the FP assay principle. As the labeled probe floats freely in the solution, it rotates more rapidly, producing a low FP signal. When the labeled probe binds to proteins, it rotates slower and produces a high FP signal. (B) In FP assays, probe titration was performed by using 10 uM protein with […] FAM-labeled Let-7 probe (n = 9 replicates). Protein titration was performed by using 1 nM of FAM-labeled Let-7 probe with 1 nM–50 uM Lin28B ZKD protein (n = 9 replicates), and competition titration using 1 nM–50 µM non-labeled Let-7 probe with 10 uM of Lin28B ZKD protein with 1 nM FAM-labeled Let-7 probe (9 replicates). (C) FP assays were used to screen 163 compounds at the concentration of 20 uM using 1 nM of FAM-labeled Let-7 probe with 10 uM Lin28B ZKD protein.
Figure 3 Lin28 inhibitors block the interaction between Lin28B ZKD and Let-7. […]

IGROV1 cells = experiment: Real-time qPCR of Let-7d, SOX2, HMGA2 in IGROV1 cells; assay type: cell-based; details: IGROV1 cells (Lin28A-positive), 20 uM, 48 h
Experimental: The DUNE cell line and DUNE cells with Lin28B knockout by CRISPR (DUNE (KO)) were reported in our previous studies. IGROV1 cells were obtained from Sigma-Aldrich (St. Louis, MO, USA). DUNE and DUNE (KO) cells were cultured in Dulbecco’s Modified Eagle Medium with high Glucose/L-glutamine (DMEM; Hyclone, Logan, UT, USA) and 10% of fetal bovine serum (FBS; Gibico, Waltham, MA, USA). IGROV1 cells were cultured in Roswell Park Memorial Institute 1640 (RPMI-1640; Hyclone) medium with 10% FBS. All the cell lines were incubated in 5% CO2 at 37 °C and were tested for mycoplasma contamination monthly and cell line authentication was tested by short tandem repeat profiling by ATCC.
There are several standard molecular techniques, including real-time qPCR, flow cytometry, cell proliferation, colony formation, and immunoblotting assays, that have been reported previously by our lab.
as §4

O=c1cccc(-c2nc3cc(F)c(O)cc3c(=O)[nH]2)[nH]1 [Ln115]
IC50 (Lin28A ZKD): 12.2 µM | IC50 (Lin28B ZKD): ~21 µM

CCc1cc(=O)[nH]c(Nc2cc(Cl)ccc2O)n1 [Ln7]
IC50 (Lin28A ZKD): 27.4 µM | IC50 (Lin28B ZKD): ~45 µM

CC(=O)N(C)c1cccc(-c2ccc3nnc(C)n3n2)c1 [compound 1632, reference compound]
suppression of FP signals (Lin28A ZKD): mild inhibitions | Let-7 microRNA levels (IGROV1 cells): upregulated | maximum inhibition in FP assay (Lin28B ZKD; Lin28B ZKD titration): ≤ 50%

CCOc1cccc2c1N[C@@H](c1ccc(C(=O)O)cc1)[C@H]1CC=C[C@@H]21 [Li71, reference compound]
suppression of FP signals (Lin28A ZKD): mild inhibitions | Let-7 microRNA levels (IGROV1 cells): upregulated | IC50 (Lin28B ZKD): 55 µM

O=c1[nH]c(Nc2ccccc2O)cs1 [Ln15]
IC50 (Lin28A ZKD): 9.1 µM | upregulation of Let-7 (IGROV1 cells): 10 fold | IC50 (Lin28B ZKD): ~9 µM

Source: article PMC9688808, “Discovery of Novel Lin28 Inhibitors to Suppress Cancer Cell Stemness” (Cancers, 2022)
